Test results taken from patent publication US12569499B2, “Intravenous formulations of RK-33” (NATSAR PHARMACEUTICALS, INC., priority 2021, dated 2026).
Converted amounts (≈) assume the structure as drawn.

How the values were obtained:
[1] = Qualitative solubility of RK-33 in various solubilizers; format: physicochemical; settings: for solubility: thermodynamic from solid
Protocol: The degree of solubility of RK-33 in various solubilizers were tested. RK-33 was added to the solubilizer and observed for formation of homogenous molecular dispersion and physical appearance.

tumor cells = settings: sarcoma, breast, prostate, colorectal, lung, medulloblastoma; cited from earlier work
[2] = Formulation appearance (color, visual precipitation, clarity); format: physicochemical; settings: with 50% PEG 200 and 4% HPβCD
Protocol: RK-33 formulations comprising of various combinations of solvents and polymers were prepared and analyzed for color, visual precipitation and clarity.
Formulations comprising of various combinations of solvents and polymers were prepared with an intralipid emulsion used to provide calories to patients who receive an injection into the vein. The prepared formulations were then analyzed for color, visual precipitation and clarity.
Formulations comprising of various combinations of solvents and polymers, including Captisol®, were prepared. The formulations were analyzed for color, visual precipitation and clarity.

DDX3 = DDX3 (Homo sapiens, UniProt O00571); settings: Oncogene 27(28): 3912-3922 (2008); cited from earlier work
Chain of DDX3 (O00571 whole entry): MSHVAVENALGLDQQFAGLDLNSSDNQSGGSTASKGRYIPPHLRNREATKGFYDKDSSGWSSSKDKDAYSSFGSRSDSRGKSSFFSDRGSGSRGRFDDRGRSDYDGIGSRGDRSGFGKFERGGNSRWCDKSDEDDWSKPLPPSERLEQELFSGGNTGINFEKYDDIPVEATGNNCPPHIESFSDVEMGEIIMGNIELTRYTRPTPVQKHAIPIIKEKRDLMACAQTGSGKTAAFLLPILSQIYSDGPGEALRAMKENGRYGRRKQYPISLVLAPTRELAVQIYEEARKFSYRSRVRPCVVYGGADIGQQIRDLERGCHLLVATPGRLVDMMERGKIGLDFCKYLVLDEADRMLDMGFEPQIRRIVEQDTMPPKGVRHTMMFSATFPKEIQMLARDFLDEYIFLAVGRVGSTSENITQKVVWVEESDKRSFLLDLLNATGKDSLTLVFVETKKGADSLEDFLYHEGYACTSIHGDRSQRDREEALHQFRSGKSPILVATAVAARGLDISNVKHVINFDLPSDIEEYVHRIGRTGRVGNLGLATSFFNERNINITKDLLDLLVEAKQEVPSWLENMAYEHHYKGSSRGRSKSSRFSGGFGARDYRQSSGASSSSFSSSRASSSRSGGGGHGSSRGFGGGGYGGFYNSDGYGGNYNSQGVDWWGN

SMILES: COc1ccc(Cn2c3ncnc4c(ncn4Cc4ccc(OC)cc4)c-3nc2=O)cc1 [RK-33]
- solubility ([1]; aqueous buffer, solvent Water (pH 4)): < 1000 µg/mL
- solubility ([1]; aqueous buffer, solvent Water (pH 8)): < 1000 µg/mL
- solubility ([1]; aqueous buffer, solvent Water (pH 10)): < 1000 µg/mL
- solubility ([1]; oil or lipid, solvent Corn oil): < 1000 µg/mL
- solubility ([1]; oil or lipid, solvent Gelucire 44/14): < 1000 µg/mL
- solubility ([1]; oil or lipid, solvent Labrafil 1944CS): < 1000 µg/mL
- solubility ([1]; oil or lipid, solvent Miglyol 810): < 1000 µg/mL
- solubility ([1]; oil or lipid, solvent Oleic acid): < 1000 µg/mL
- solubility ([1]; oil or lipid, solvent Olive oil): < 1000 µg/mL
- solubility ([1]; organic solvent or mixture, solvent Benzyl alcohol): > 250000 µg/mL
- solubility ([1]; organic solvent or mixture, solvent DMA): > 100000 µg/mL
- solubility ([1]; organic solvent or mixture, solvent DMSO): > 100000 µg/mL
- solubility ([1]; organic solvent or mixture, solvent Ethanol): < 1000 µg/mL
- solubility ([1]; organic solvent or mixture, solvent Glycerin): < 1000 µg/mL
- solubility ([1]; organic solvent or mixture, solvent Glycerol formal): > 75000 µg/mL
- solubility ([1]; organic solvent or mixture, solvent NMP): > 100000 µg/mL
- solubility ([1]; organic solvent or mixture, solvent PEG 200): ~12000 µg/mL (≈ 28000 µM)
- solubility ([1]; organic solvent or mixture, solvent PEG300): ~10000 µg/mL (≈ 23300 µM)
- solubility ([1]; organic solvent or mixture, solvent PEG 400): 5000 to 10000 µg/mL (≈ 11700 to 23300 µM)
- solubility ([1]; organic solvent or mixture, solvent PG): 1000 to 5000 µg/mL (≈ 2330 to 11700 µM)
- solubility ([1]; simulated gastric fluid, solvent Water (pH 1.6)): < 1000 µg/mL
- Observation ([1]; solvent Benzyl alcohol): Clear, yellow colored solution
- Observation ([1]; solvent Corn oil): Dispersion
- Observation ([1]; solvent DMA): Clear, yellow colored solution
- Observation ([1]; solvent DMSO): Clear, yellow colored solution
- Observation ([1]; solvent Ethanol): Yellow dispersion
- Observation ([1]; solvent Gelucire 44/14): Dispersion
- Observation ([1]; solvent Glycerin): Dispersion
- Observation ([1]; solvent Glycerol formal): Clear, yellow colored solution
- Observation ([1]; solvent Labrafil 1944CS): Dispersion
- Observation ([1]; solvent Miglyol 810): Dispersion
- Observation ([1]; solvent NMP): Clear, yellow colored solution
- Observation ([1]; solvent Oleic acid): Dispersion
- Observation ([1]; solvent Olive oil): Dispersion
- Observation ([1]; solvent PEG 200): Clear, yellow colored solution
- Observation ([1]; solvent PEG300): Clear, yellow colored solution
- Observation ([1]; solvent PEG 400): Clear, yellow colored solution
- Observation ([1]; solvent PG): Clear, yellow colored solution
- Observation ([1]; solvent Water): Poor wettability
- Observation ([1]; solvent Water (pH 1.6)): Poor wettability
- Observation ([1]; solvent Water (pH 4)): Poor wettability
- Observation ([1]; solvent Water (pH 8)): Poor wettability
- Observation ([1]; solvent Water (pH 10)): Poor wettability
- solubility ([1]; solvent Water): < 1000 µg/mL
- Inhibiting the growth of tumor cells (tumor cells): effective results in inhibiting the growth of tumor cells
- RK-33 formulation concentration achieved [2]: 2.5 mg/mL
- Effect of targeting DDX3 on cells (DDX3): promotes cell death
